Measurements published in patent US20240197737A1, “APPLICATION OF COMPOUND IN PREPARATION OF INHIBITORY DRUG TARGETING ERBB2 MUTANT” (SHANGHAI PHARMACEUTICALS HOLDING CO., LTD., priority 2021, published 2024).
Blank lines part the entries; values can stand above or below the molecule they belong to.

Assays:
[1] = target: T1, ErbB2 (D769H) (Homo sapiens, UniProt P04626, D769H); experiment: ErbB2 mutant inhibition assay (33P-ATP radiometric kinase assay, Reaction Biology); type: biochemical; conditions: ATP 10 μM, 20 min preincubation, 2 h reaction; read-out: Compound IC50 ErbB2 (D769H)
T1 construct: purchased Reaction Biology Corporation
T1 sequence (P04626 23-1255 D769H): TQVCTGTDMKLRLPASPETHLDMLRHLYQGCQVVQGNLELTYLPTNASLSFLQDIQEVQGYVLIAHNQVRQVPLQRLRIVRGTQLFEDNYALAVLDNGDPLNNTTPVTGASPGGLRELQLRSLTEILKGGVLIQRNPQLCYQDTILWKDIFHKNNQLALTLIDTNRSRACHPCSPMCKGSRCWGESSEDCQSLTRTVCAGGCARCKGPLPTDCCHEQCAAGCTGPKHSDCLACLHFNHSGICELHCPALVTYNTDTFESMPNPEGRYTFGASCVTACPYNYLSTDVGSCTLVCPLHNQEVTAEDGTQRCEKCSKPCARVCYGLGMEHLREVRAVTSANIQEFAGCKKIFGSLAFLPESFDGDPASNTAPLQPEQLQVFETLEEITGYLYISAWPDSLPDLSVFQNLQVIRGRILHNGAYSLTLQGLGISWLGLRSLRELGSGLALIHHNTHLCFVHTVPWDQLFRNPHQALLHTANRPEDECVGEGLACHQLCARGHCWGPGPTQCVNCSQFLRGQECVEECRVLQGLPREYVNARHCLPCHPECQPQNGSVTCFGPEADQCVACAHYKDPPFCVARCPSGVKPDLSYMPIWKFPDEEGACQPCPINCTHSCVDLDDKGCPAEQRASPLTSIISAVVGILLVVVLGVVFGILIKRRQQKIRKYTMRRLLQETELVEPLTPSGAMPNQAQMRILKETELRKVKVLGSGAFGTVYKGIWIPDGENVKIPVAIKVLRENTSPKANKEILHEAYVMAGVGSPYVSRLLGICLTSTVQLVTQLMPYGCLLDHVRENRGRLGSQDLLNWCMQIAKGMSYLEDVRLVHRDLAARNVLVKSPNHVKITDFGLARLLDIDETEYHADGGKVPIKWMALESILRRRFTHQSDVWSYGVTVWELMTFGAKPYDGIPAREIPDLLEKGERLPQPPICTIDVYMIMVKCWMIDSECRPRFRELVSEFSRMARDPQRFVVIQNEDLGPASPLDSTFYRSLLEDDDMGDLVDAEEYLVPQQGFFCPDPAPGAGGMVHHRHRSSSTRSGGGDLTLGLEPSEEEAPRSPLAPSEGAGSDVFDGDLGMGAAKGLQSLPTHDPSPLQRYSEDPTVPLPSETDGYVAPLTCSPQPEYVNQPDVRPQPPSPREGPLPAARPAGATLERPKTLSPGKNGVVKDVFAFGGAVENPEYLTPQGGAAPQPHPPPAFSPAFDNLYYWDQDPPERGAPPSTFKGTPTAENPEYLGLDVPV
Method: (§1) The reagents and materials used in the assay, as well as the testing procedure, were provided and carried out by Reaction Biology Corporation. The specific steps were as follows: • 1. […] Conditions for the enzyme reaction assay: The test compounds were incubated for 20 minutes, ATP concentration was set at 10 μM, and the total duration of the enzyme reaction was 2 hours. • 3. Experimental steps for the enzyme reaction
(§2) The enzyme reaction buffer was 20 mM HEPES at a pH of 7.5, 10 mM MgCl2, 2 mM MnCl2, 1 mM EGTA, 0.01% Brij35, 0.02 mg/mL BSA, 0.1 mM Na3VO4, 2 mM DTT, and 1% DMSO.
(§3) Kinase activity %=(Remaining kinase activity of test compound samples/Kinase activity of solvent control samples (DMSO))*100%
(§4) The IC50 of the compound was calculated by fitting the kinase activity % at different compound concentrations.

[2] = target: T2, ErbB2 (D769Y) (Homo sapiens, UniProt P04626, D769Y); experiment: as above; type: biochemical; conditions: ATP 10 μM, 20 min preincubation, 2 h reaction; read-out: Compound IC50 ErbB2 (D769Y)
T2 construct: purchased Reaction Biology Corporation
T2 sequence (P04626 23-1255 D769Y): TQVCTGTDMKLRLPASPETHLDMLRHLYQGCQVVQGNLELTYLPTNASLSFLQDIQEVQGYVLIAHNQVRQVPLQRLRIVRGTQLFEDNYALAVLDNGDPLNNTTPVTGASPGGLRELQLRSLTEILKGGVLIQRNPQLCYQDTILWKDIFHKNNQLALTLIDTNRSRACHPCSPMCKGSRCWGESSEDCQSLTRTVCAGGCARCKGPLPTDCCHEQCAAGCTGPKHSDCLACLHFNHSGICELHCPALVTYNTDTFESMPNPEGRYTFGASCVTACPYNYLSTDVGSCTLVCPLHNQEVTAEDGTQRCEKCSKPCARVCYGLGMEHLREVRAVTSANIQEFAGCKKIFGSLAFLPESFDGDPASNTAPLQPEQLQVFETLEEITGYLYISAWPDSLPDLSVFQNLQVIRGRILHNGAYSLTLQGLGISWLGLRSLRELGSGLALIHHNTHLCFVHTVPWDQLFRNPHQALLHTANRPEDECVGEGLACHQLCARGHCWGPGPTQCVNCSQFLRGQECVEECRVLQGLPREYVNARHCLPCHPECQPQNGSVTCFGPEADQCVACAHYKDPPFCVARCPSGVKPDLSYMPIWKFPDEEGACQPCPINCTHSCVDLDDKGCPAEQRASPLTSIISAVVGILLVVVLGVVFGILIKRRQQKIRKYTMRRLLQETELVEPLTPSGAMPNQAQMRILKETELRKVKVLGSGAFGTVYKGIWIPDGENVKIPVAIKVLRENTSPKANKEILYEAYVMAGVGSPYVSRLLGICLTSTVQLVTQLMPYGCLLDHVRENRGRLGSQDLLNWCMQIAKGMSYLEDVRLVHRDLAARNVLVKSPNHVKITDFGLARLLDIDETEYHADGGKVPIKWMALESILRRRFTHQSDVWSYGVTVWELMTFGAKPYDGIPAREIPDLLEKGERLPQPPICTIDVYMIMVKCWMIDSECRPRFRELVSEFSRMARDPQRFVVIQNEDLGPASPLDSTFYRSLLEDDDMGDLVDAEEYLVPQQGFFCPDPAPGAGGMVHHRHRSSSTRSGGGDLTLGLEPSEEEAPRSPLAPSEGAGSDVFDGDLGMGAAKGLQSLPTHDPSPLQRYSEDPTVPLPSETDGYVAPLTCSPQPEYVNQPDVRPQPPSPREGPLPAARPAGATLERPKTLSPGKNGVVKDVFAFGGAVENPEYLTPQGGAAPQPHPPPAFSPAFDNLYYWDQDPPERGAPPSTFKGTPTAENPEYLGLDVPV
Method: as §1, §2, §3, §4

[3] = target: T3, ErbB2 (V777L) (Homo sapiens, UniProt P04626, V777L); experiment: as above; type: biochemical; conditions: ATP 10 μM, 20 min preincubation, 2 h reaction; read-out: Compound IC50 ErbB2 (V777L)
T3 construct: purchased Reaction Biology Corporation
T3 sequence (P04626 23-1255 V777L): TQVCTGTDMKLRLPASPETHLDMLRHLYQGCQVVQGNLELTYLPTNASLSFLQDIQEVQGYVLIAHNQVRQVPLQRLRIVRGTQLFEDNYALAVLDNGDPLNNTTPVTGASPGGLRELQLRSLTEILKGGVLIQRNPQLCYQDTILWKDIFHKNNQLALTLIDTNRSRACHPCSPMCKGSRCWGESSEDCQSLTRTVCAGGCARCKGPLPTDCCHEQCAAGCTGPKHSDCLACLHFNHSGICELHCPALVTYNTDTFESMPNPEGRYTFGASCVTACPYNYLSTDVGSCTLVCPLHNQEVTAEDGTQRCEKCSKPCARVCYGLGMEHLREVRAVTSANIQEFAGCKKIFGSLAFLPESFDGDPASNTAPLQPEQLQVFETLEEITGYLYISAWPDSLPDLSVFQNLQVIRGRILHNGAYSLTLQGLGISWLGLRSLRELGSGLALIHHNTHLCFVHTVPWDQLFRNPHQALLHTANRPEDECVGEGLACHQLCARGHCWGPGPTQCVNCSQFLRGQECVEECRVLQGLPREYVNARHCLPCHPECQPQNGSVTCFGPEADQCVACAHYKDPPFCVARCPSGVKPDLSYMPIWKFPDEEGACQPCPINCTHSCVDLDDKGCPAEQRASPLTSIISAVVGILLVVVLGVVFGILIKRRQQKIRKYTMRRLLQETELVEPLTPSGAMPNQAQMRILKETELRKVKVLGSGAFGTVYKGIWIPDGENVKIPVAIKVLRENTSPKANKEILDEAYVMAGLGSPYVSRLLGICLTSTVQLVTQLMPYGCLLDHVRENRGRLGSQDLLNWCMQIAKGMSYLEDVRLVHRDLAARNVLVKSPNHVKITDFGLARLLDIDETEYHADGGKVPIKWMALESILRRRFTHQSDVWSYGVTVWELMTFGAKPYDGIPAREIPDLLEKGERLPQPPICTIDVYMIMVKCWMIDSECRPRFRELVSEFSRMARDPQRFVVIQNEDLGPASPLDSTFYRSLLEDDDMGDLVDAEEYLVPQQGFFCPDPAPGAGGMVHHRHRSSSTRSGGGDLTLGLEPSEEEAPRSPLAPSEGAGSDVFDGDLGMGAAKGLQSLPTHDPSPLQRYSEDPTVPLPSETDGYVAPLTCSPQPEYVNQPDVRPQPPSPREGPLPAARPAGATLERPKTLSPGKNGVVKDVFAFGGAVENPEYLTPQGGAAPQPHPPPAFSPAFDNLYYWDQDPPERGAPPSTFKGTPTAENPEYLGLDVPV
Method: as §1, §2, §3, §4

[4] = target: T4, ErbB2 (R896C) (Homo sapiens, UniProt P04626, R896C); experiment: as above; type: biochemical; conditions: ATP 10 μM, 20 min preincubation, 2 h reaction; read-out: Compound IC50 ErbB2 (R896C)
T4 construct: purchased Reaction Biology Corporation
T4 sequence (P04626 23-1255 R896C): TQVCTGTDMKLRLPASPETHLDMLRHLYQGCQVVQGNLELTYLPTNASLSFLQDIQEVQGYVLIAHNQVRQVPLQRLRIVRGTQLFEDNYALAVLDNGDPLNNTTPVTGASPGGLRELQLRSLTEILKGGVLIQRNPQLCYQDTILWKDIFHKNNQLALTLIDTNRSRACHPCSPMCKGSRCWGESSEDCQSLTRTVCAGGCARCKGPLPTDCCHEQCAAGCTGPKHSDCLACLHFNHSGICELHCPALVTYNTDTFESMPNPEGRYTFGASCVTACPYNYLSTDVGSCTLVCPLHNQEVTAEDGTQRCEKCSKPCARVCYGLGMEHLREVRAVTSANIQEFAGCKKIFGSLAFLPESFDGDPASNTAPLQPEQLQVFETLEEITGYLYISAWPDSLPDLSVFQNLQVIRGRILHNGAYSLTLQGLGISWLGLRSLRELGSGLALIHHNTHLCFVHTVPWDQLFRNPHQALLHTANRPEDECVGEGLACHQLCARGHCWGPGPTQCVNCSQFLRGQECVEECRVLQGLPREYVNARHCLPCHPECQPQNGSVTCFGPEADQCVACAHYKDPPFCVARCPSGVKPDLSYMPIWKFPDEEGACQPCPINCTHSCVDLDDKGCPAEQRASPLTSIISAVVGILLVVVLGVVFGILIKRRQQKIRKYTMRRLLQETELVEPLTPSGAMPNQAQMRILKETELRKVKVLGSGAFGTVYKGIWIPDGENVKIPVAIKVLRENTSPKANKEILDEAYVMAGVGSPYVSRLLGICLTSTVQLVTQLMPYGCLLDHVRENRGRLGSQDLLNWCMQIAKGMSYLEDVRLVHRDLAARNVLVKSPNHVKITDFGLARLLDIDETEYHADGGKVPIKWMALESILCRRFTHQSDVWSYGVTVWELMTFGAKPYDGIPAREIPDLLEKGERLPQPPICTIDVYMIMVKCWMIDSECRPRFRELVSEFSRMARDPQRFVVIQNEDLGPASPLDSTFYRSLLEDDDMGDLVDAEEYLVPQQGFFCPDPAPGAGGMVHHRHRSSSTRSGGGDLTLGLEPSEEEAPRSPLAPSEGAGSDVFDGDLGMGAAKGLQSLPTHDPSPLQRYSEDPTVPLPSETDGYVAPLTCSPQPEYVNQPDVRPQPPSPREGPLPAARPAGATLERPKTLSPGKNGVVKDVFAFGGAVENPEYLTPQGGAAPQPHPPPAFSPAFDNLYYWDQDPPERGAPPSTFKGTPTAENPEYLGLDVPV
Method: as §1, §2, §3, §4

[5] = tested on: Ba/F3 ErbB2 A775_G776insYVMA mouse xenograft; experiment: Efficacy testing in NPSG mouse xenograft model; type: in vivo; conditions: for TGI (%): administration for 13 days; for Efficacy (in words): continuous administration for 13 days
Excerpt: NPSG male mice (Shanghai Jihui Laboratory Animal Care Co., Ltd., Certificate: No. 20170012006783) were subcutaneously inoculated on the right shoulder with Ba/F3 ErbB2 A775_G776insYVMA cells (cultured in vitro, 9×10^7 cells obtained). When the average tumor volume reached 130 mm^3, the mice were randomly divided into six groups based on tumor volume and body weight, with 10 mice in each group, and administration was started immediately. After the initiation of administration, the mice's body weight and tumor volume were measured twice a week, with the administration continued until Day 13 of the experiment. On Day 14 of the experiment, post-administration sample collection was conducted for each group.
Note: Data are presented as mean±standard error; control group is the group without any compound administered.

[6] = tested on: NCI-H1781 ErbB2 exon20ins (G766 > VC); experiment: ErbB2 mutant cell inhibition test (CTG, 72 hours); type: cell-based, Human
Method: Cells were cultured, harvested during their logarithmic growth phase, and counted using a platelet counter. Cell viability was verified to be above 90% by trypan blue exclusion assay. After in vitro culture, 2×10^6 cells were obtained. The cell suspension was aliquoted into a 96-well plate at 1×10^3 cells per well (90 μL/well), and incubated overnight under conditions of 37° C., 5% CO2, and 95% humidity. A 10× drug solution was prepared, with a maximum concentration of 10 μM for the assay, and serially diluted 3-fold to nine concentrations. 10 μL of the drug solution was added to each well of the 96-well plate inoculated with the cells, and three duplicate wells were set for each drug concentration. The 96-well plate, now containing the drug-treated cells, was cultured under conditions of 37° C., 5% CO2, and 95% humidity for an additional 72 hours before CTG analysis was performed.

[7] = tested on: Ba/F3 ErbB2 A775_G776insYVMA; experiment: ErbB2 mutant cell inhibition test (CTG, 72 hours); type: cell-based
Method: Cells were cultured, harvested during their logarithmic growth phase, and counted using a platelet counter. Cell viability was verified to be above 90% by trypan blue exclusion assay. After in vitro culture, 2×10^6 cells were obtained. […] A 10× drug solution was prepared, with a maximum concentration of 10 μM for the assay, and serially diluted 3-fold to nine concentrations. 10 μL of the drug solution was added to each well of the 96-well plate inoculated with the cells, and three duplicate wells were set for each drug concentration.

Structure (SMILES): CCOc1cc2ncc(C#N)c(Nc3ccc(Oc4cc5nncn5cn4)c(C)c3)c2cc1NC(=O)/C=C/[C@H]1CCCN1C
- IC50 [1]: 1340 pM
- IC50 [2]: 2060 pM
- IC50 [3]: 889 pM
- IC50 [4]: 1940 pM

Structure (SMILES): Cc1cc(Nc2ncnc3ccc(NC(=O)/C=C/[C@H]4CCCN4C)cc23)ccc1Oc1ccc2nccn2n1
- IC50 [1]: 9110 pM
- IC50 [2]: 38900 pM
- IC50 [3]: 14900 pM
- IC50 [4]: 3700 pM

Structure (SMILES): Cc1cc(Nc2ncnc3ccc(NC(=O)/C=C/[C@H]4CCCN4C)cc23)ccc1Oc1ccn2ccnc2c1
- IC50 [1]: < 152 pM
- IC50 [2]: 244 pM
- IC50 [3]: < 152 pM
- IC50 [4]: 379 pM

Structure (SMILES): CCOc1cc2ncnc(Nc3ccc(Oc4ccn5ncnc5c4)c(C)c3)c2cc1NC(=O)/C=C/[C@H]1CCCN1C
- IC50 [1]: < 152 pM
- IC50 [2]: < 152 pM
- IC50 [3]: < 152 pM
- IC50 [4]: < 152 pM

Structure (SMILES): CCOc1cc2ncnc(Nc3ccc(Oc4ccn5ncnc5c4)c(C)c3)c2cc1NC(=O)/C(F)=C/[C@H]1CCCN1C [Compound I]
- Tumor volume ([5]; 10 mg/kg, Day 0, mean ± standard error): 130.9 ± 4.72 mm^3
- Tumor volume ([5]; 10 mg/kg, Day 4, mean ± standard error): 112.1 ± 4.71 mm^3
- Tumor volume ([5]; 10 mg/kg, Day 7, mean ± standard error): 157.7 ± 6.95 mm^3
- Tumor volume ([5]; 10 mg/kg, Day 11, mean ± standard error): 160.2 ± 6.3 mm^3
- Tumor volume ([5]; 10 mg/kg, Day 13, mean ± standard error): 172.9 ± 11.16 mm^3
- TGI (%) ([5]; 10 mg/kg): 95%
- Efficacy (in words) ([5]; 10 mg/kg): strong efficacy
- Tumor volume ([5]; 20 mg/kg, Day 0, mean ± standard error): 130.2 ± 5.25 mm^3
- Tumor volume ([5]; 20 mg/kg, Day 4, mean ± standard error): 69.2 ± 2.69 mm^3
- Tumor volume ([5]; 20 mg/kg, Day 7, mean ± standard error): 82.7 ± 4.74 mm^3
- Tumor volume ([5]; 20 mg/kg, Day 11, mean ± standard error): 93.5 ± 5.75 mm^3
- Tumor volume ([5]; 20 mg/kg, Day 13, mean ± standard error): 71.1 ± 4.51 mm^3
- TGI (%) ([5]; 20 mg/kg): 107%
- Efficacy (in words) ([5]; 20 mg/kg): strong efficacy
- Tumor volume ([5]; 40 mg/kg, Day 0, mean ± standard error): 130.1 ± 5 mm^3
- Tumor volume ([5]; 40 mg/kg, Day 4, mean ± standard error): 63.8 ± 4.44 mm^3
- Tumor volume ([5]; 40 mg/kg, Day 7, mean ± standard error): 36.3 ± 11.12 mm^3
- Tumor volume ([5]; 40 mg/kg, Day 11, mean ± standard error): 21.5 ± 9.26 mm^3
- Tumor volume ([5]; 40 mg/kg, Day 13, mean ± standard error): 20.6 ± 8.61 mm^3
- TGI (%) ([5]; 40 mg/kg): 112%
- Efficacy (in words) ([5]; 40 mg/kg): strong efficacy
- Tumor inhibitory effect compared with the other test groups (in words) ([5]; 40 mg/kg, statistically different from other test groups (p-value less than 0.01)): strongest tumor inhibitory effect
- IC50 ([6]; Homo sapiens, NCI-H1781 ErbB2 exon20ins (G766 > VC), 72 hours, CTG): 35800 pM
- Inhibitory activity on cell proliferation (in words) ([6]; NCI-H1781 mutant cell line): good inhibitory activity
- Inhibitory activity on cell proliferation (in words) ([7]; Ba/F3 ErbB2 A775_G776insYVMA mutant cell line): good inhibitory activity
- IC50 ([7]; Mus musculus, BaF3, Ba/F3 ErbB2 A775_G776insYVMA, 72 hours, CTG): 5000 pM
- IC50 [1]: 716 pM
- IC50 [2]: 1400 pM
- IC50 [3]: 312 pM
- IC50 [4]: 713 pM

Structure (SMILES): Cc1cc(Nc2ncnc3ccc(NC4=NC(C)(C)CO4)cc23)ccc1Oc1ccn2ncnc2c1 [Tucatinib, reference compound]
- IC50 [1]: 2580 pM
- IC50 [2]: 8890 pM
- IC50 [3]: 1080 pM
- IC50 [4]: 2170 pM

Results, then the molecule that gave them:

- IC50 [1]: 283 pM
- IC50 [2]: 216 pM
- IC50 [3]: 224 pM
- IC50 [4]: 741 pM
Structure (SMILES): Cc1cc(Nc2ncnc3ccc(NC(=O)/C=C/[C@H]4CCCN4C)cc23)ccc1Oc1cc2nccn2cn1

- IC50 [1]: 1690 pM
- IC50 [2]: 811 pM
- IC50 [3]: 2410 pM
- IC50 [4]: 4840 pM
Structure (SMILES): Cc1cc(Nc2ncnc3ccc(NC(=O)/C(F)=C/[C@H]4CCCN4C)cc23)ccc1Oc1cc2nncn2cn1

- IC50 [1]: < 152 pM
- IC50 [2]: < 152 pM
- IC50 [3]: < 152 pM
- IC50 [4]: 187 pM
Structure (SMILES): CN1CCC[C@@H]1/C=C/C(=O)Nc1ccc2ncnc(Nc3ccc(Oc4cc5nncn5cn4)c(Cl)c3)c2c1

- IC50 [1]: 422 pM
- IC50 [2]: 247 pM
- IC50 [3]: 357 pM
- IC50 [4]: 1130 pM
Structure (SMILES): Cc1cc(Nc2ncnc3ccc(NC(=O)/C=C/[C@H]4CCCN4)cc23)ccc1Oc1cc2nncn2cn1

- IC50 [1]: 563 pM
- IC50 [2]: 413 pM
- IC50 [3]: 471 pM
- IC50 [4]: 1870 pM
Structure (SMILES): CCOc1cc2ncnc(Nc3ccc(Oc4cc5nncn5cn4)c(C)c3)c2cc1NC(=O)/C=C/[C@H]1CCCN1C
